Reference: patent US11618738B2, “Compound and application thereof in treating inflammation or inflammation-related diseases” (SICHUAN CENTER FOR TRANSLATIONAL MEDICINE OF TRADITIONAL …, priority 2017, dated 2023)
Marks after values point to notes of the source that are not given here.

Key:
Assay type in all cases: in vivo
xanthine oxidase (XOD) = target: T1, xanthine oxidase (XOD) (Mus musculus, UniProt Q00519); assay: Liver XOD activity in OA-induced hyperuricemia model mice; details: for XOD(U/gprot): liver homogenate, mean ± SD
T1 construct: from tissue; host or cells: liver of KM mice (homogenate supernatant)
Experimental: (§1) SPF grade KM mice, half female and half male (18-22 g/mouse). After the animals were adaptively fed for 3 days, they were randomly grouped by body weight. It was administered once a day for 7 consecutive days by gavage. On the 7th day, 1 hour before the gavage administration, the mice were intraperitoneally injected with a dose of 300 mg/kg of oxonic acid potassium salt. After the administration, the eyeballs were removed to take blood, and the serum was separated for testing. After decapitation, the liver was taken, weighed, cut into pieces, added with saline, homogenized, and centrifuged. Operated according to the kit instructions to determine the blood uric acid (UA) level in each group of mice; determine the xanthine oxidase (XOD) activity in the supernatant of mouse liver homogenate.

[1] = test system: acute gouty arthritis in rats induced by sodium urate crystals; assay: Foot swelling in rats with acute gouty arthritis induced by sodium urate crystals; details: for foot volume compared with the model group (in words): medium- and high-dose groups, 24 h and 48 h after injection of sodium urate crystals
Experimental: Injecting sodium urate crystals into the joint cavity to establish an acute gouty arthritis model. Its pathological and clinical manifestations are very similar. It is a classic method commonly used in animal experiments to study gouty arthritis. This experiment will explore the effects of UTLOH series drugs on animals with acute gouty arthritis induced by sodium urate.
SPF grade SD rats, half female and half male (200-220 g/mouse), were randomly grouped by weight. The drug was administered once a day, for 3 consecutive days. […] Rats in the normal group were injected with an equal volume of sterile saline to the back of the right ankle joint. The administration was continued after modeling, once a day for 3 consecutive days. The ankle joint and foot volume of the rats in each group were measured respectively before modeling and 2 h, 4 h, 8 h, 24 h and 48 h after modeling.

[2] = test system: OA-induced hyperuricemia model mice; assay: Serum UA in oxonic acid potassium salt-induced hyperuricemia model mice; details: for UA: serum, oxonic acid potassium salt 300 mg/kg i.p., mean ± SD
Experimental: Oxoxazine potassium salt can directly increase blood uric acid levels in animals. In this experiment, intraperitoneal injection of oxonic acid potassium salt was used to observe the uric acid-lowering effect of UTLOH series drugs.
as §1

[3] = 6.25 mg/kg gavage once a day for 7 days
[4] = 12.5 mg/kg gavage once a day for 7 days
[5] = 10 mg/kg once a day, 2 h after modeling, mean ± SD
[6] = 10 mg/kg once a day, 4 h after modeling, mean ± SD
[7] = 10 mg/kg once a day, 8 h after modeling, mean ± SD
[8] = 10 mg/kg once a day, 24 h after modeling, mean ± SD
[9] = 10 mg/kg once a day, 48 h after modeling, mean ± SD
[10] = 20 mg/kg once a day, 2 h after modeling, mean ± SD
[11] = 20 mg/kg once a day, 4 h after modeling, mean ± SD
[12] = 20 mg/kg once a day, 8 h after modeling, mean ± SD
[13] = 20 mg/kg once a day, 24 h after modeling, mean ± SD
[14] = 20 mg/kg once a day, 48 h after modeling, mean ± SD
[15] = 40 mg/kg once a day, 2 h after modeling, mean ± SD
[16] = 40 mg/kg once a day, 4 h after modeling, mean ± SD
[17] = 40 mg/kg once a day, 8 h after modeling, mean ± SD
[18] = 40 mg/kg once a day, 24 h after modeling, mean ± SD
[19] = 40 mg/kg once a day, 48 h after modeling, mean ± SD

T1 sequence (Q00519 whole entry): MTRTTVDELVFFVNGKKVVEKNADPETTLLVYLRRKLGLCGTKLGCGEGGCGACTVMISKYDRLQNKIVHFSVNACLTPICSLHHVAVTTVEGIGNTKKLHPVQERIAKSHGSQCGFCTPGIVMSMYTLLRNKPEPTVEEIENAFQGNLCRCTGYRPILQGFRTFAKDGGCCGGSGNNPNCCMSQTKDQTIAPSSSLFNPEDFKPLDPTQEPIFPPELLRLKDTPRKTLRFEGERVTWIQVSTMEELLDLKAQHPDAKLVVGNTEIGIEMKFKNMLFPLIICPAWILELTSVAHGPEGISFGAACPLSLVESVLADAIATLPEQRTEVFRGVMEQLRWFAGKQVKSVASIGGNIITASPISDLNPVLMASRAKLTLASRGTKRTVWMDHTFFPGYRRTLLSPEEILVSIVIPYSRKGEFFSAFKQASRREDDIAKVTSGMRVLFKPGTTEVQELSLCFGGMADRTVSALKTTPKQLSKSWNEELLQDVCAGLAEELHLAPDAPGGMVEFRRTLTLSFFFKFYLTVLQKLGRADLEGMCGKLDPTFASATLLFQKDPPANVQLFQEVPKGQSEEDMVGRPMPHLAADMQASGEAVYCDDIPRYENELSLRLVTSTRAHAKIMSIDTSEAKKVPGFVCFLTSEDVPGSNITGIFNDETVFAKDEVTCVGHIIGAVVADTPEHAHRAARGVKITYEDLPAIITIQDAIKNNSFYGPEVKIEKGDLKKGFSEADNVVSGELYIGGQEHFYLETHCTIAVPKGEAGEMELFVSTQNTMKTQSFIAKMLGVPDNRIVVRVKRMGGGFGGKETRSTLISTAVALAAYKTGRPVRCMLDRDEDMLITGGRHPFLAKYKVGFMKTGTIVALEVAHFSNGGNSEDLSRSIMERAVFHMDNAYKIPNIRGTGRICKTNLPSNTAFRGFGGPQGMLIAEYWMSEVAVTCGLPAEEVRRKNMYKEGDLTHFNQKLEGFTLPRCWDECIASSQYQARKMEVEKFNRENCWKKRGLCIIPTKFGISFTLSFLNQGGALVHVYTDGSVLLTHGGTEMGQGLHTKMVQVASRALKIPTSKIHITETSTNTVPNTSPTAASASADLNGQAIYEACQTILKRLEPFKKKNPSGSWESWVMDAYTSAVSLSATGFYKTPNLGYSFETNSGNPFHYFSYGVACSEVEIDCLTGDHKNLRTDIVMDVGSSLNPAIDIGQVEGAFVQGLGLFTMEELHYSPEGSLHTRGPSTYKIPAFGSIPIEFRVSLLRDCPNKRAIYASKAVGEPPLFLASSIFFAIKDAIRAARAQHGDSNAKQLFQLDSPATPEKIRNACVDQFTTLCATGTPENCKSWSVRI

Row | Structure (SMILES) | Foot swelling [1, 5] [mL] | Foot swelling [1, 6] [mL] | Foot swelling [1, 7] [mL] | Foot swelling [1, 8] [mL] | Foot swelling [1, 9] [mL] | Foot swelling [1, 10] [mL] | Foot swelling [1, 11] [mL] | Foot swelling [1, 12] [mL] | Foot swelling [1, 13] [mL] | Foot swelling [1, 15] [mL] | Foot swelling [1, 16] [mL] | Foot swelling [1, 17] [mL] | Foot swelling [1, 18] [mL] | Foot swelling [1, 19] [mL] | further results
1 | Cc1cc(C(=O)Nc2ccc(O)cc2O)no1 [UTLOH-4e] | 0.28 ± 0.09 | 0.34 ± 0.07 | 0.33 ± 0.11 | 0.22 ± 0.12 | 0.05 ± 0.07 | 0.18 ± 0.07 | 0.24 ± 0.06 | 0.19 ± 0.07 | 0.19 ± 0.12 | 0.20 ± 0.08 | 0.25 ± 0.05 | 0.19 ± 0.10 | 0.22 ± 0.07 | 0.09 ± 0.12 | XOD(U/gprot) (xanthine oxidase (XOD); [3]): 21.55 ± 2.00 U/gprot; XOD(U/gprot) (xanthine oxidase (XOD); [4]): 22.54 ± 3.98 U/gprot; liver XOD activity of model mice (in words) (xanthine oxidase (XOD); versus model group): significantly reduce; Foot swelling [1, 14]: 0.09 ± 0.08 mL; foot volume compared with the model group (in words) ([1]; 2 h, 4 h, 8 h): significantly reduce; UA [2, 3]: 50.07 ± 9.86 µmol/L; UA [2, 4]: 47.15 ± 13.48 µmol/L; level of uric acid in the serum of model mice (in words) ([2]; versus model group): significantly reduce
2 | Cc1cc(C(=O)Nc2ccccc2O)no1 [UTLOH-4a] | 0.33 ± 0.20 | 0.31 ± 0.10 | 0.29 ± 0.09 | 0.20 ± 0.11 | 0.03 ± 0.11 | 0.28 ± 0.13 | 0.3 ± 0.13 | 0.32 ± 0.09 | 0.21 ± 0.14 | 0.30 ± 0.13 | 0.36 ± 0.13 | 0.36 ± 0.09 | 0.19 ± 0.11 | 0.11 ± 0.09 | Foot swelling (ml) [1, 14]: 0.07 ± 13*^ ml; foot volume compared with the model group (in words) ([1]; low-): significantly reduce
